Where a name gives a salt, the structure may show the parent alone.
Columns and labels:
Assay type in all cases: biochemical
DPP-IX = DPP-IX (Homo sapiens (Human), UniProt Q86TI2); assay: Measurement of DPP-IX inhibitory activity (Gly-Pro-AFC); conditions: 100 μM Gly-Pro-AFC, 50 mM HEPES pH 7.5, room temperature
DPP-II = DPP-II (Homo sapiens (Human), UniProt Q9UHL4); assay: Measurement of DPP-II inhibitory activity (Gly-Pro-AFC); conditions: 100 μM Gly-Pro-AFC, 50 mM acetic acid pH 4.5, room temperature
DPP-VIII = DPP-VIII (Homo sapiens (Human), UniProt Q6V1X1); assay: Measurement of DPP-VIII inhibitory activity (Gly-Pro-AFC); conditions: 100 μM Gly-Pro-AFC, 50 mM HEPES pH 7.5, room temperature
[1] = target: Dipeptidyl peptidase-IV (DPP-IV) (Homo sapiens (Human), UniProt P27487); assay: Assay of DPP-IV inhibitory activity (fluorescent substrate Ac-Gly-Pro-AFC); conditions: DPP-IV 7.1 nM, 100 μM Ac-Gly-Pro-AFC, 25° C., 50 mM HEPES pH 7.4, 1 hour
Dipeptidyl peptidase-IV (DPP-IV), sequence (P27487 whole entry): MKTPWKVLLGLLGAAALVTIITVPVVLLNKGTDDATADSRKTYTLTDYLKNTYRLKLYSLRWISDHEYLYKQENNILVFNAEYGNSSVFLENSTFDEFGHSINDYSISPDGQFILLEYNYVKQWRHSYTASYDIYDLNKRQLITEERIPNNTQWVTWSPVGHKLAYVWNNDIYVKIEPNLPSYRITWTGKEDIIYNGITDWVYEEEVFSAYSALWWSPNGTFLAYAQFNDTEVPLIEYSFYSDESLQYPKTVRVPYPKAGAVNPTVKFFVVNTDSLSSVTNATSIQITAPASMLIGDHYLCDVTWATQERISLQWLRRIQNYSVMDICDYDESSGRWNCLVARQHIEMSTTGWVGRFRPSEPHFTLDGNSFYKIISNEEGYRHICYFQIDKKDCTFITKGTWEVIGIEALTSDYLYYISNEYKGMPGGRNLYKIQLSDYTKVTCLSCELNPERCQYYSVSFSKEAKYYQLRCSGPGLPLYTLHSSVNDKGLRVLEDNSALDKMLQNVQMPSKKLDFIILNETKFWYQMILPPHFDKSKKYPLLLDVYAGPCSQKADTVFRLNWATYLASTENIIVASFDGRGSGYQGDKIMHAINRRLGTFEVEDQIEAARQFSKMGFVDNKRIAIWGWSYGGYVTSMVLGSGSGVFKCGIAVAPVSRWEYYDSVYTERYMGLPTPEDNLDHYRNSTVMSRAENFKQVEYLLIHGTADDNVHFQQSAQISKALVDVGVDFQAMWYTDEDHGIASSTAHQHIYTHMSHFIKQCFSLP

DPP-IX, sequence (Q86TI2 whole entry, species assumed): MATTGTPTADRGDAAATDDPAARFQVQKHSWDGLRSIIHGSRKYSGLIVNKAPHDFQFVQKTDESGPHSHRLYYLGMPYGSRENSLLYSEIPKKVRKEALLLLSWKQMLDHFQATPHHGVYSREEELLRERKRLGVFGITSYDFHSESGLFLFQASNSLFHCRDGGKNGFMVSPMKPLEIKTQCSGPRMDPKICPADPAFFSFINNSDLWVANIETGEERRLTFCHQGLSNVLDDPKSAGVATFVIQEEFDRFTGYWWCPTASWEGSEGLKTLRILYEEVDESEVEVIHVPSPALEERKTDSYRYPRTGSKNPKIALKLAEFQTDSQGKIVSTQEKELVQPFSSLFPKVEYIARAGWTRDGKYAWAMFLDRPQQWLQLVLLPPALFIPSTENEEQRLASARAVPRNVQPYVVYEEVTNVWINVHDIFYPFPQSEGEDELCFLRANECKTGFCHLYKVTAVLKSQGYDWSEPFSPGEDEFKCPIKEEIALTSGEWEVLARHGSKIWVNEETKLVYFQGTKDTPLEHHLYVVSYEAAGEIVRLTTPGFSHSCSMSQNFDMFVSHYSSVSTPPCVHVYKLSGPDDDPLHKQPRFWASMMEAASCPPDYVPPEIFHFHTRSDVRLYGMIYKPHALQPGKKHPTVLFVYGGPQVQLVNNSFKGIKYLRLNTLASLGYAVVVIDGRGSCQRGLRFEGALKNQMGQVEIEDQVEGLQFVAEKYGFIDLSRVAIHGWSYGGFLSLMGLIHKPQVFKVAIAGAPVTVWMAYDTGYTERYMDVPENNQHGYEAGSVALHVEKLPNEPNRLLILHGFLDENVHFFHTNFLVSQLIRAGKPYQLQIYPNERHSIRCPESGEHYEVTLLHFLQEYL
DPP-VIII, sequence (Q6V1X1 whole entry, species assumed): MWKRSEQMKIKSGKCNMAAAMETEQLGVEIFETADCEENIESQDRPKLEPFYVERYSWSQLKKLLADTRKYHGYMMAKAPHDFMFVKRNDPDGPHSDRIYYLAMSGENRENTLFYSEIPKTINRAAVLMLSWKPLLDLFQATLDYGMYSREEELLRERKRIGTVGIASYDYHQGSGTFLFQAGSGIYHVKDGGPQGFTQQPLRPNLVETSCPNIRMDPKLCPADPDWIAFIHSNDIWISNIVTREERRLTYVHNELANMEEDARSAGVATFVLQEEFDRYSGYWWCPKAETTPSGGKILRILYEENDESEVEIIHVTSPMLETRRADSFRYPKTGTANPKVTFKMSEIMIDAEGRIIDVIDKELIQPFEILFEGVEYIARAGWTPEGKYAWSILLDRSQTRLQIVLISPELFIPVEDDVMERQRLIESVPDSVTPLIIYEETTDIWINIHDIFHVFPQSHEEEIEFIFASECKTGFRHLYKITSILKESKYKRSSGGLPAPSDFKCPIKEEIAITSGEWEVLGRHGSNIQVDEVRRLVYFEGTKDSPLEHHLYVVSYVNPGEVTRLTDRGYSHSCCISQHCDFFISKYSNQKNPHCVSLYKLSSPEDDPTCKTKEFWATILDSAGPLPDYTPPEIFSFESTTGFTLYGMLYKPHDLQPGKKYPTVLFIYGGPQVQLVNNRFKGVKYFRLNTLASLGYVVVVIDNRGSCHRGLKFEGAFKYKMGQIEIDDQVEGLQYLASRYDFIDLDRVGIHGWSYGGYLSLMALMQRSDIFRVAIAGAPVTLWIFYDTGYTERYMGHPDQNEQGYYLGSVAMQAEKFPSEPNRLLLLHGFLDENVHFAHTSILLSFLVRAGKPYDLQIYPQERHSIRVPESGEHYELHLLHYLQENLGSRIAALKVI

SMILES	IC50 (DPP-IX)	IC50 (DPP-II)	IC50 (DPP-VIII)	IC50 [1]
N[C@@H](CC(=O)N1CCc2c(nc(C3CCC3)nc2C(F)(F)F)C1)CN1C(=O)CCC(F)(F)C1O (stereo partly drawn) [Example 5, 1-[(S)-2-amino-4-(2-cyclobutyl-4-trifluoromethyl-5,8-dihydro-6H-pyrido[3,4-d]pyrimidin-7-yl)-4-oxo-butyl]-5,5-difluoro-6-hydroxy-piperidin-2-one hydrochloride]	> 400 µM	> 161 µM	> 400 µM	
N[C@@H](CC(=O)N1CCc2c(nc(-c3ccncc3)nc2C(F)(F)F)C1)CN1C(=O)CCC(F)(F)[C@@H]1O [Example 6, 1-[(S)-2-amino-4-oxo-4-(2-pyridin-4-yl-4-trifluoromethyl-5,8-dihydro-6H-pyrido[3,4-d]pyrimidin-7-yl)-butyl]-5,5-difluoro-6-hydroxy-piperidin-2-one]	> 100 µM	> 70 µM	> 127 µM	
N[C@@H](CC(=O)N1CCc2c(nc(-c3ccco3)nc2C(F)(F)F)C1)CN1C(=O)CCC(F)(F)[C@@H]1O [Example 8, 1-[(S)-2-amino-4-(2-furan-2-yl-4-trifluoromethyl-5,8-dihydro-6H-pyrido[3,4-d]pyrimidin-7-yl)-butyl]-4-oxo-butyl]-5,5-difluoro-6-hydroxy-piperidin-2-one hydrochloride]	> 130 µM	> 80 µM	> 400 µM	
CC1CC(=O)N(C[C@@H](N)CC(=O)N2CCc3c(nc(C(C)(C)C)nc3C(F)(F)F)C2)C1=O (stereo partly drawn) [Example 22, 1-[(S)-2-amino-4-(2-t-butyl-4-trifluoromethyl-5,8-dihydro-6H-pyrido[3,4-d]pyrimidin-7-yl)-4-oxo-butyl]-3-methyl-pyrrolidine-2,6-dione hydrochloride]				> 2.5 µM

The remaining lines, values ahead:

IC50 (DPP-IX)	IC50 (DPP-II)	IC50 (DPP-VIII)	IC50 [1]	SMILES
> 400 µM				N[C@@H](CC(=O)N1CCc2c(nc(C(F)(F)F)nc2C(F)(F)F)C1)CN1C(=O)CCC(F)(F)[C@@H]1O [Example 2, 1-[(2S)-amino-4-(2,4-bis-trifluoromethyl-5,8-dihydro-6H-pyrido[3,4-d]pyrimidin-7-yl)-4-oxo-butyl]-5,5-difluoro-(6S)-hydroxy-piperidin-2-one hydrochloride]
> 210 µM	> 400 µM	> 400 µM		COCCc1nc2c(c(C(F)(F)F)n1)CCN(C(=O)C[C@H](N)CN1C(=O)CCC(F)(F)[C@@H]1O)C2 [Example 10, 1-{(S)-2-amino-4-[2-(2-methoxy-ethyl)-4-trifluoromethyl-5,8-dihydro-6H-pyrido[3,4-d]pyrimidin-7-yl]-4-oxo-butyl}-5,5-difluoro-6-hydroxy-piperidin-2-one hydrochloride]
